In US20170369492A1 (Takeda Pharmaceutical Company Limited, priority 2014, published 2017):

The molecules below were run against T1, human GPR43 (Homo sapiens, UniProt O15552) (assay: Ca-Flux Functional Assay: Determination of Agonist/Positive Allosteric Modulator (PAM) Activity). Settings: CHO-K1 Gα16 cells stably expressing human GPR43; compound added in the presence of EC20 sodium acetate; intracellular Ca2+ by FLIPR; agonist/PAM activity not distinguished.
T1 construct: expressed in transfected cells
T1 sequence (O15552 1-330): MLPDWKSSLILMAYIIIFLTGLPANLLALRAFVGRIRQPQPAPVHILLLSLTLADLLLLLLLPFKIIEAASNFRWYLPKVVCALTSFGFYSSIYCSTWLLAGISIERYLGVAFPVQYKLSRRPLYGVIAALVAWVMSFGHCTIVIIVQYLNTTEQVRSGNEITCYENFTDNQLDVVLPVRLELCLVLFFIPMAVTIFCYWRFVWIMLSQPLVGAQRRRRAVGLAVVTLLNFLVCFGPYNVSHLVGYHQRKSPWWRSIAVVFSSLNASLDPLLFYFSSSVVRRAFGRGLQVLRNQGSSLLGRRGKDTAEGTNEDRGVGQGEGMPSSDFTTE
Format: cell-based
Description: Ca-Flux Functional Assay: Determination of Agonist/Positive Allosteric Modulator (PAM) Activity
GPR43 agonist/PAM activity was determined by measuring changes in intracellular calcium levels using a Ca^2+ sensitive fluorescent dye. The changes in fluorescent signal were monitored by FLIPR (manufactured by Molecular Devices). GPR43 mediated increases in intracellular Ca^2+ concentration were readily detected upon activation with sodium acetate. Prior to the assay (24 hours), CHO-K1 Gα16 cells stably expressing human GPR43 were-seeded in cell culture medium in black, clear-bottom 384-well plates (Corning Inc) and grown overnight at 37° C., 5% CO2. On the day of the assay, cell culture media was removed and cells were loaded with Calcium 5 Dye (Molecular Devices) diluted in HBSS containing 25 mM HEPES, 2.5 mM Probenecid, 0.1% BSA for 1 hour at 37° C., 5% CO2. 10 point half log concentration response curves of sodium acetate from 10 mM were conducted prior to the testing of compounds to calculate the sodium acetate concentration that produces 20% of the maximal response (EC20). Test compounds (at to point half log concentration response curves from 10 μM) were added in the presence of sodium acetate to achieve a final concentration that produces approximately 20% maximal response as calculated from the previous experiment. The changes in fluorescent signal were monitored by FLIPR upon addition of the compound/EC20 sodium acetate mix. The EC50 values were determined from ten point concentration response curves. Curves were generated using the average of two wells for each data point.
The above assay detects both GPR43 receptor agonists and positive allosteric modulators of the GPR43 receptor, without distinguishing between the two. Activity in either regard is useful in the treatment of conditions associated with GPR43 receptor activity.

Row | SMILES | EC50 [nM]
1 | Nc1c(S(=O)(=O)c2cccs2)c2nccnc2n1C1CCCCC1 [Example 8, 5-cyclohexyl-7-(thiophene-2-sulfonyl)-5H-pyrrolo[2,3-b]pyrazin-6-amine] | 118
2 | Nc1c(S(=O)(=O)c2ccccc2)c2ncnc(Cl)c2n1C1CCC(F)(F)CC1 [Example 32, 7-(benzenesulfonyl)-4-chloro-5-(4,4-difluorocyclohexyl)-5H-pyrrolo[3,2-d]pyrimidin-6-amine] | 689
3 | Nc1c(S(=O)(=O)NCc2ccccc2)c2nccnc2n1C1CCCCC1 [Example 70, 6-amino-N-benzyl-5-cyclohexyl-5H-pyrrolo[2,3-b]pyrazine-7-sulfonamide] | 3280
4 | CCC(C)NS(=O)(=O)c1c(N)n(C2CCCCC2)c2nccnc12 (stereo not drawn) [Example 95, 6-amino-N-(butan-2-yl)-5-cyclohexyl-5H-pyrrrolo[2,3-b]pyrazine-7-sulfonamide] | 334
5 | Cc1ccc2c(S(=O)(=O)c3ccccc3)c(N)n(C3CCC(F)(F)CC3)c2n1 [Example 25, 3-(benzenesulfonyl)-1-(4,4-difluorocyclohexyl)-6-methyl-1H-pyrrolo[2,3-b]pyridin-2-amine] | 1100
6 | Nc1c(S(=O)(=O)NCC2CCC2)c2nccnc2n1C1CCCCC1 [Example 74, 6-amino-N-(cyclobutylmethyl)-5-cyclohexyl-5H-pyrrolo[2,3-b]pyrazine-7-sulfonamide] | 321
7 | Nc1c(S(=O)(=O)c2ccccc2)c2ccnnc2n1C1CCCCC1 [Example 28, 5-(benzenesulfonyl)-7-cyclohexyl-7H-pyrrolo[2,3-c]pyridazin-6-amine] | 707
8 | Nc1c(S(=O)(=O)c2ccccc2)c2nccnc2n1C1CCCCC1 [Example 1, 7-(benzenesulfonyl)-5-cyclohexyl-5H-pyrrolo[2,3-b]pyrazin-6-amine] | 261
9 | Nc1c(S(=O)(=O)N2CCC(F)(F)CC2)c2nccnc2n1C1CCCCC1 [Example 69, 5-cyclohexyl-7-((4,4-difluoropiperidin-1-yl)sulfonyl)-5H-pyrrolo[2,3-b]pyrazin-6-amine] | 547
10 | Nc1c(S(=O)(=O)N2CCSCC2)c2nccnc2n1C1CCCCC1 [Example 78, 5-cyclohexyl-7-(thiomorpholine-4-sulfonyl)-5H-pyrrolo[2,3-b]pyrazin-6-amine] | 337
11 | Nc1c(S(=O)(=O)c2cccc(F)c2)c2nccnc2n1C1CCCCC1 [Example 110, 5-cyclohexyl-7-[(3-fluorobenzene)sulfonyl]-5H-pyrrolo[2,3-b]pyrazin-6-amine] | 343
12 | Cc1ccc(S(=O)(=O)c2c(N)n(C3CCCCCC3)c3nccnc23)cc1 [Example 2, 5-cycloheptyl-7-[(4-methylbenzene)sulfonyl]-5H-pyrrolo[2,3-b]pyrazin-6-amine] | 218
13 | COc1ccc(S(=O)(=O)c2c(N)n(C3CCCCC3)c3nccnc23)cc1Cl [Example 114, 7-[(3-chloro-4-methoxybenzene)-sulfonyl]-5-cyclohexyl-5H-pyrrolo[2,3-b]pyrazin-6-amine] | 206
14 | CC1(C)CCCN(S(=O)(=O)c2c(N)n(C3CCCCC3)c3nccnc23)C1 [Example 92, 5-cyclohexyl-7-(3,3-dimethylpiperidine-1-sulfonyl)-5H-pyrrolo[2,3-b]pyrazin-6-amine] | 440
15 | Nc1c(S(=O)(=O)NCC2CC2)c2nccnc2n1C1CCCCC1 [Example 89, 6-amino-5-cyclohexyl-N-(cyclopropylmethyl)-5H-pyrrolo[2,3-b]pyrazine-7-sulfonamide] | 658
16 | COc1nc(C)nc2c(S(=O)(=O)c3cccc(F)c3)c(N)n(C3CCCCC3)c12 [Example 39, 5-cyclohexyl-7-(3-fluorobenzenesulfonyl)-4-methoxy-2-methyl-5H-pyrrolo[3,2-d]pyrimidin-6-amine] | 657
17 | CC1CCCN1S(=O)(=O)c1c(N)n(C2CCCCC2)c2nccnc12 (stereo not drawn) [Example 68, 5-cyclohexyl-7-((2-methylpyrrolidin-1-yl)sulfonyl)-5H-pyrrolo[2,3-b]pyrazin-6-amine] | 1470
18 | Nc1c(S(=O)(=O)N2CCOCC2)c2nccnc2n1C1CCCCC1 [Example 61, 5-cyclohexyl-7-(morpholinosulfonyl)-5H-pyrrolo[2,3-b]pyrazin-6-amine] | 4320

Row | SMILES | EC50 [nM]
19 | COc1nc(C)nc2c(S(=O)(=O)c3ccccc3F)c(N)n(C3CCCCC3)c12 [Example 38, 5-cyclohexyl-7-(2-fluorobenzenesulfonyl)-4-methoxy-2-methyl-5H-pyrrolo[3,2-d]pyrimidin-6-amine] | 169
20 | COc1ccc(S(=O)(=O)c2c(N)n(C3CCCCC3)c3nccnc23)cc1 [Example 108, 5-cyclohexyl-7-[(4-methoxybenzene)-sulfonyl]-5H-pyrrolo[2,3-b]pyrazin-6-amine] | 78
21 | COc1cccc(S(=O)(=O)c2c(N)n(C3CCCCC3)c3nccnc23)c1 [Example 112, 5-cyclohexyl-7-[(3-methoxybenzene)-sulfonyl]-5H-pyrrolo[2,3-b]pyrazin-6-amine] | 295
22 | COC1CCN(S(=O)(=O)c2c(N)n(C3CCCCC3)c3nccnc23)C1 (stereo not drawn) [Example 91, 5-cyclohexyl-7-(3-methoxypyrrolidine-1-sulfonyl)-5H-pyrrolo[2,3-b]pyrazin-6-amine] | 8350
23 | Nc1c(S(=O)(=O)NCCC(F)(F)F)c2nccnc2n1C1CCCCC1 [Example 82, 6-amino-5-cyclohexyl-N-(3,3,3-trifluoropropyl)-5H-pyrrolo[2,3-b]pyrazine-7-sulfonamide] | 821
24 | Nc1c(S(=O)(=O)N2Cc3ccccc3C2)c2nccnc2n1C1CCCCC1 [Example 97, 5-cyclohexyl-7-(2,3-dihydro-1H-isoindole-2-sulfonyl)-5H-pyrrolo[2,3-b]pyrazin-6-amine] | 173
25 | Nc1c(S(=O)(=O)N2C3CCC2CC(O)C3)c2nccnc2n1C1CCCCC1 (stereo not drawn) [Example 104, 8-{6-amino-5-cyclohexyl-5H-pyrrolo[2,3-b]pyrazine-7-sulfonyl}-8-azabicyclo[3.2.1]octan-3-ol] | 3080
26 | CCCCn1c(N)c(S(=O)(=O)c2ccccc2)c2nccnc21 [Example 45, 5-butyl-7-5(phenylsulfonyl)-5H-pyrrolo[2,3-b]pyrazin-6-amine] | 2890
27 | CC1(C)CCN(S(=O)(=O)c2c(N)n(C3CCCCC3)c3nccnc23)CC1 [Example 66, 5-cyclohexyl-7-((4,4-dimethylpiperidin-1-yl)sulfonyl)-5H-pyrrolo[2,3-b]pyrazin-6-amine] | 327
28 | Nc1c(S(=O)(=O)c2ccc(OC(F)(F)F)cc2)c2nccnc2n1C1CCCCC1 [Example 116, 5-cyclohexyl-7-{[4-(trifluoromethoxy)-benzene]sulfonyl}-5H-pyrrolo[2,3-b]pyrazin-6-amine] | 1080
29 | Nc1c(S(=O)(=O)N2CC(Oc3ccccc3)C2)c2nccnc2n1C1CCCCC1 [Example 99, 5-cyclohexyl-7-(3-phenoxyazetidine-1-sulfonyl)-5H-pyrrolo[2,3-b]pyrazin-6-amine] | 1550
30 | Nc1c(S(=O)(=O)N2CCC(c3ccccc3)C2)c2nccnc2n1C1CCCCC1 (stereo not drawn) [Example 86, 5-cyclohexyl-7-(3-phenylpyrrolidine-1-sulfonyl)-5H-pyrrolo[2,3-b]pyrazin-6-amine] | 1720
31 | Cc1ccc(S(=O)(=O)c2c(N)n(C3CCCCC3)c3ncccc23)cc1 [Example 11, 1-cyclohexyl-3-[(4-methylbenzene)sulfonyl]-1H-pyrrolo[2,3-b]pyridin-2-amine] | 753
32 | Nc1c(S(=O)(=O)c2ccc(F)cc2)c2nccnc2n1C1CCCCC1 [Example 6, 5-cyclohexyl-7-[(4-fluorobenzene)sulfonyl]-5H-pyrrolo[2,3-b]pyrazin-6-amine] | 301
33 | Nc1c(S(=O)(=O)N2CCC(CO)CC2)c2nccnc2n1C1CCCCC1 [Example 106, (1-{6-amino-5-cyclohexyl-5H-pyrrolo[2,3-b]pyrazine-7-sulfonyl}piperidin-4-yl)methanol] | 3050
34 | Nc1c(S(=O)(=O)N2CCN(CC(F)(F)F)CC2)c2nccnc2n1C1CCCCC1 [Example 105, 5-cyclohexyl-7-[4-(2,2,2-trifluoroethyl)-piperazine-1-sulfonyl]-5H-pyrrolo[2,3-b]pyrazin-6-amine] | 647
35 | Nc1c(S(=O)(=O)c2ccc(OC(F)F)cc2)c2nccnc2n1C1CCCCC1 [Example 118, 5-cyclohexyl-7-{[4-(difluoromethoxy)-benzene]sulfonyl}-5H-pyrrolo[2,3-b]pyrazin-6-amine] | 177
36 | COc1ncnc2c(S(=O)(=O)c3ccccc3)c(N)n(C3CCOCC3)c12 [Example 40, 7-(benzenesulfonyl)-4-methoxy-5-(oxan-4-yl)-5H-pyrrolo[3,2-d]pyrimidin-6-amine] | 7380
